From the supplement of paper PMC10331698
± gives the standard deviation of the averaged measurements.

Key:
Assay in all cases: level (log10 ratio to DMSO vehicle control); higher = higher biomarker level / cell amount than vehicle control
Conditions in all cases: in DMSO
[1] = compound: C=CC(=O)OCC(F)(F)C(F)(F)C(F)(F)C(F)(F)C(F)(F)C(F)(F)C(F)(F)F [1H,1H-Perfluorooctyl acrylate]
Description: (§1)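 BioMAP Diversity Plus panel of 12 human primary cell co-culture systems (3C, 4H, LPS, SAg, BT, BF4T, BE3C, CASM3C, HDF3CGF, KF3CT, MyoF, Mphg). Compounds were added 1 h before stimulation and left for 24 h (MyoF 48 h; BT 72 h for soluble read-outs or 6 d for IgG). Biomarkers were read by ELISA, cytotoxicity by SRB, PBMC viability and proliferation by Alamar Blue. Each well value was divided by the mean of 8 DMSO control wells on the same plate and log10 transformed; duplicate blinded samples were tested at 4 concentrations.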

[2] = compound: COC(=O)CCC(F)(F)C(F)(F)C(F)(F)C(F)(F)F [Methyl 2H,2H,3H,3H-perfluoroheptanoate]
Description: as §1

[3] = compound: FC(F)(F)C(F)(C(F)(F)F)C(F)(F)C(F)(F)CC1CO1 [3-(Perfluoro-3-methylbutyl)-1,2-propenoxide]
Description: as §1

Heptafluorobutyramide = compound: NC(=O)C(F)(F)C(F)(F)C(F)(F)F [Heptafluorobutyramide]
Description: as §1

Pentafluoropropionamide = compound: NC(=O)C(F)(F)C(F)(F)F [Pentafluoropropionamide]
Description: as §1

[4] = compound: O=C(O)C(F)(F)C(F)(F)C(F)(F)OC(F)(C(F)(F)F)C(F)(F)F [Perfluoro-4-isopropoxybutanoic acid]
Description: as §1

[5] = compound: OCCC(F)(F)C(F)(F)C(F)(F)C(F)(F)C(F)(F)C(F)(F)F [6:2 Fluorotelomer alcohol]
Description: as §1

## MyoF:CXCL8/IL-8
[1]; 6700 nM
  level (log10): 0.002 ± 0.0099
[1]; 20000 nM
  level (log10): 0.037 ± 0.062
[1]; 60000 nM
  level (log10): 0.0185 ± 0.036
[2]; 6700 nM
  level (log10): -0.0085 ± 0.00071
[2]; 20000 nM
  level (log10): -0.001 ± 0.0071
[2]; 60000 nM
  level (log10): 0.0155 ± 0.039
[3]; 6700 nM
  level (log10): 0.0045 ± 0.00071
[3]; 20000 nM
  level (log10): 0.0185 ± 0.0021
Heptafluorobutyramide; 6700 nM
  level (log10): -0.0015 ± 0.023
Heptafluorobutyramide; 20000 nM
  level (log10): -0.014 ± 0.011
Heptafluorobutyramide; 60000 nM
  level (log10): 0.002 ± 0.0099
Pentafluoropropionamide; 6700 nM
  level (log10): -0.031 ± 0.013
Pentafluoropropionamide; 20000 nM
  level (log10): -0.026 ± 0.016
Pentafluoropropionamide; 60000 nM
  level (log10): 0.013 ± 0.045
[4]; 6700 nM
  level (log10): 0.0195 ± 0.06
[4]; 20000 nM
  level (log10): 0.077 ± 0.079
[4]; 60000 nM
  level (log10): 0.0735 ± 0.074
[5]; 6700 nM
  level (log10): 0.0185 ± 0.032
[5]; 20000 nM
  level (log10): -0.0045 ± 0.0021

## MyoF:Collagen I
[1]; 6700 nM
  level (log10): -0.0195 ± 0.018
[1]; 20000 nM
  level (log10): -0.03
[1]; 60000 nM
  level (log10): -0.0145 ± 0.011
[2]; 6700 nM
  level (log10): 0.0055 ± 0.016
[2]; 20000 nM
  level (log10): 0.0035 ± 0.011
[2]; 60000 nM
  level (log10): -0.004 ± 0.021
[3]; 6700 nM
  level (log10): 0 ± 0.0099
[3]; 20000 nM
  level (log10): -0.017 ± 0.017
Heptafluorobutyramide; 6700 nM
  level (log10): -0.015 ± 0.013
Heptafluorobutyramide; 20000 nM
  level (log10): -0.0105 ± 0.00071
Heptafluorobutyramide; 60000 nM
  level (log10): -0.014 ± 0.0099
Pentafluoropropionamide; 6700 nM
  level (log10): 0.012 ± 0.0057
Pentafluoropropionamide; 20000 nM
  level (log10): 0.006 ± 0.0028
Pentafluoropropionamide; 60000 nM
  level (log10): 0.01 ± 0.0028
[4]; 6700 nM
  level (log10): -0.0045 ± 0.0035
[4]; 20000 nM
  level (log10): -0.0035 ± 0.021
[4]; 60000 nM
  level (log10): 0.0075 ± 0.016
[5]; 6700 nM
  level (log10): -0.0015 ± 0.0064
[5]; 20000 nM
  level (log10): -0.003 ± 0.011

## MyoF:Collagen III
[1]; 6700 nM
  level (log10): 0.0005 ± 0.013
[1]; 20000 nM
  level (log10): -0.007 ± 0.024
[1]; 60000 nM
  level (log10): -0.0055 ± 0.021
[2]; 6700 nM
  level (log10): -0.0085 ± 0.0092
[2]; 20000 nM
  level (log10): -0.007 ± 0.0014
[2]; 60000 nM
  level (log10): -0.015 ± 0.0057
[3]; 6700 nM
  level (log10): -0.004 ± 0.0099
[3]; 20000 nM
  level (log10): -0.0275 ± 0.0078
Heptafluorobutyramide; 6700 nM
  level (log10): -0.0025 ± 0.0092
Heptafluorobutyramide; 20000 nM
  level (log10): 0.0025 ± 0.011
Heptafluorobutyramide; 60000 nM
  level (log10): -0.004 ± 0.02
Pentafluoropropionamide; 6700 nM
  level (log10): 0.002 ± 0.031
Pentafluoropropionamide; 20000 nM
  level (log10): -0.005 ± 0.0014
Pentafluoropropionamide; 60000 nM
  level (log10): -0.007 ± 0.0057
[4]; 6700 nM
  level (log10): -0.0095 ± 0.011
[4]; 20000 nM
  level (log10): -0.001 ± 0.0014
[4]; 60000 nM
  level (log10): 0.0025 ± 0.021
[5]; 6700 nM
  level (log10): 0.003 ± 0.016
[5]; 20000 nM
  level (log10): -0.005 ± 0.0014

## MyoF:Collagen IV
[1]; 6700 nM
  level (log10): 0.034 ± 0.054
[1]; 20000 nM
  level (log10): 0.03 ± 0.035
[1]; 60000 nM
  level (log10): 0.062 ± 0.071
[2]; 6700 nM
  level (log10): -0.0335 ± 0.03
[2]; 20000 nM
  level (log10): -0.0285 ± 0.021
[2]; 60000 nM
  level (log10): -0.0115 ± 0.029
[3]; 6700 nM
  level (log10): 0.029 ± 0.024
[3]; 20000 nM
  level (log10): 0.057 ± 0.075
Heptafluorobutyramide; 6700 nM
  level (log10): -0.0185 ± 0.019
Heptafluorobutyramide; 20000 nM
  level (log10): -0.01 ± 0.0028
Heptafluorobutyramide; 60000 nM
  level (log10): 0.0275 ± 0.023
Pentafluoropropionamide; 6700 nM
  level (log10): -0.0295 ± 0.03
Pentafluoropropionamide; 20000 nM
  level (log10): -0.0275 ± 0.025
Pentafluoropropionamide; 60000 nM
  level (log10): -0.007 ± 0.051
[4]; 6700 nM
  level (log10): -0.007 ± 0.035
[4]; 20000 nM
  level (log10): -0.0025 ± 0.06
[4]; 60000 nM
  level (log10): 0.014 ± 0.047
[5]; 6700 nM
  level (log10): -0.0005 ± 0.013
[5]; 20000 nM
  level (log10): -0.002 ± 0.013

## MyoF:Decorin
[1]; 6700 nM
  level (log10): -0.0145 ± 0.011
[1]; 20000 nM
  level (log10): -0.005
[1]; 60000 nM
  level (log10): 0.003 ± 0.018
[2]; 6700 nM
  level (log10): -0.001 ± 0.013
[2]; 20000 nM
  level (log10): 0.015 ± 0.0028
[2]; 60000 nM
  level (log10): 0.0175 ± 0.052
[3]; 6700 nM
  level (log10): 0.0025 ± 0.029
[3]; 20000 nM
  level (log10): 0.026 ± 0.042
Heptafluorobutyramide; 6700 nM
  level (log10): -0.029 ± 0.057
Heptafluorobutyramide; 20000 nM
  level (log10): 0.02 ± 0.081
Heptafluorobutyramide; 60000 nM
  level (log10): 0.0065 ± 0.049
Pentafluoropropionamide; 6700 nM
  level (log10): 0.01 ± 0.017
Pentafluoropropionamide; 20000 nM
  level (log10): 0.0135 ± 0.00071
Pentafluoropropionamide; 60000 nM
  level (log10): 0.0325 ± 0.028
[4]; 6700 nM
  level (log10): 0.008 ± 0.0057
[4]; 20000 nM
  level (log10): 0.023 ± 0.027
[4]; 60000 nM
  level (log10): 0.065 ± 0.061
[5]; 6700 nM
  level (log10): -0.0055 ± 0.0021
[5]; 20000 nM
  level (log10): 0.0085 ± 0.011
